Values of other authors in patent US20120195848A1, “STRONTIUM-CONTAINING BIOACTIVE BONE CEMENT” (The University of Hong Kong, priority 2011, published 2012).
Like-named read-outs stand apart in the source and are kept apart here.

In the case of `O=S(=O)([O-])[O-].[Ba+2]` [BaSO4, reference compound], the dissolution rate (20° C.) is given as 0.0002448 g/100 mL.

In the case of `O=C([O-])[O-].[Sr+2]` [SrCO3, strontium carbonate], the dissolution rate (18° C.) is given as 0.0011 g/100 ml.

In the case of `O=S(=O)([O-])[O-].[Sr+2]` [SrSO4, strontium sulfate], the dissolution rate (25° C.) is given as 0.0135 g/100 mL.
